Like-named read-outs stand apart in the source and are kept apart here.

Data on 37 compounds can be found in patent publication US20260356817A1, “AMINOPYRIMIDINE AND AMINOTRIAZINE DERIVATIVES AS MYC PROTEIN MODULATORS” (Sanford Burnham Prebys Medical Discovery Institute, priority 2022, published 2026).

This experiment relates to Myc. The experiment can be described thus: Myc inhibition assay: Myc expression per cell by anti-Myc immunofluorescence, high-content imaging. In kind it is cell-based, human (patient-derived medulloblastoma xenograft cells). The following applies: medulloblastoma PDX cells, 4 h. The text has this: To identify Myc inhibitors, cells isolated from patient-derived orthotopic xenografts (PDXs) from patients with Myc-driven medulloblastoma were used. Specifically, PDX cells were propagated by transplantation directly into the cerebellum of immunodeficient (NSG) mice and were never passaged in vitro in order to maintain properties of the tumor from which they were derived. Tumor tissues were isolated from tumor-bearing animals, dissociated into a single-cell suspension, resuspended in serum-free media, and immediately plated in 384 well plates. After overnight recovery, compounds were added to each well, and cells were incubated for 4 hours before being fixed and stained with anti-Myc antibodies and with DAPI to label nuclei. Cells were then analyzed using high-content imaging to determine the levels of Myc expression per cell and IC50 values of the compounds.
A general note: A xenograft is tissue or cells of one species grown in another, often human tumour cells in immunodeficient mice.

[1] abbreviates: Table 1, read-out: IC50 (Myc inhibition).
[2] abbreviates: Table 2, read-out: MYC Inhibition IC50.

Usually IC50 stands for the concentration needed to halve the response being measured. As for `Fc1cccc(Nc2nccc(-c3ccc4[nH]cnc4c3)n2)c1` [Compound 199, 4-(1H-benzo[d]imidazol-5-yl)-N-(3-fluorophenyl)pyrimidin-2-amine], the IC50 is, setting by setting: under setting [1], less than 200 nM; under setting [2], less than 200 nM.

In the case of `Oc1cc(Nc2ccnc(Nc3cccc(F)c3)n2)ccn1` [Compound 118, 4-((2-((3-fluorophenyl)amino)pyrimidin-4-yl)amino)pyridin-2-ol], the concentration for half-maximal inhibition (IC50) is 10000 to 100000 nM under setting [1] and 10000 to 100000 nM under setting [2].

With `c1ccc(-n2cc(Nc3nccc(-c4ccc5[nH]cnc5c4)n3)cn2)cc1` [Compound 39, 4-(1H-benzo[d]imidazol-5-yl)-N-(1-phenyl-1H-pyrazol-4-yl)pyrimidin-2-amine], the IC50 under setting [1] is less than 200 nM and the IC50 under setting [2] was less than 200 nM.

In the case of `Cc1cc(F)cc(Nc2nccc(-c3ccc4[nH]cnc4c3)n2)c1` [Compound 13, 4-(1H-benzo[d]imidazol-5-yl)-N-(3-fluoro-5-methylphenyl)pyrimidin-2-amine], the IC50 was less than 200 nM under setting [1] and less than 200 nM under setting [2].

Regarding `c1csc(Nc2nccc(-c3ccc4[nH]cnc4c3)n2)c1` [Compound 84, 4-(1H-benzo[d]imidazol-5-yl)-N-(thiophen-2-yl)pyrimidin-2-amine], the IC50 reads like this: under setting [1], 1000 to 10000 nM; under setting [2], 1000 to 10000 nM.

As to `COc1ccc(Nc2ccnc(Nc3cccc(F)c3)n2)cn1` [Compound 108, N^2-(3-fluorophenyl)-N^4-(6-methoxypyridin-3-yl)pyrimidine-2,4-diamine], the 50% inhibitory concentration (IC50) reads like this: under setting [1], 1000 to 10000 nM; under setting [2], 1000 to 10000 nM.

Take `FC(F)(F)c1ccccc1Nc1nccc(-c2ccc3[nH]cnc3c2)n1` [Compound 62, 4-(1H-benzo[d]imidazol-5-yl)-N-(2-(trifluoromethyl)phenyl)pyrimidin-2-amine]: the IC50 under setting [1] was 1000 to 10000 nM and the IC50 under setting [2] lay within 1000 to 10000 nM.

Turning to `CC(C)n1cc(Nc2nccc(-c3ccc4[nH]cnc4c3)n2)cn1` [Compound 21, 4-(1H-benzo[d]imidazol-5-yl)-N-(1-isopropyl-1H-pyrazol-4-yl)pyrimidin-2-amine], the half-inhibitory concentration (IC50) under setting [1] lay within 200 to 1000 nM and the IC50 under setting [2] lay within 200 to 1000 nM.

In the case of `COc1cc(-c2ccnc(Nc3cccc(F)c3)n2)ccn1` [Compound 243, N-(3-fluorophenyl)-4-(2-methoxypyridin-4-yl)pyrimidin-2-amine], the IC50 lay in the range of 1000 to 10000 nM under setting [1] and 1000 to 10000 nM under setting [2].

As for `Oc1ccc(-c2ccnc(Nc3cc(F)ccn3)n2)nc1` [Compound 170, 6-(2-((4-fluoropyridin-2-yl)amino)pyrimidin-4-yl)pyridin-3-ol], the 50% inhibitory concentration (IC50) under setting [1] was 1000 to 10000 nM and the half-inhibitory concentration (IC50) under setting [2] was 1000 to 10000 nM.

Turning to `COc1cccc(Nc2nccc(-c3ccnc(O)c3)n2)c1` [Compound 191, 4-(2-((3-methoxyphenyl)amino)pyrimidin-4-yl)pyridin-2-ol], the IC50 by setting is: under setting [1], 1000 to 10000 nM; under setting [2], 1000 to 10000 nM.

`COCCNc1cccc(Nc2nccc(-c3ccc4[nH]cnc4c3)n2)c1` [Compound 47, N^1-(4-(1H-benzo[d]imidazol-5-yl)pyrimidin-2-yl)-N^3-(2-methoxyethyl)benzene-1,3-diamine]: the half-inhibitory concentration (IC50) was in the range of 200 to 1000 nM under setting [1] and 200 to 1000 nM under setting [2].

For `O=C1CNCCN1c1cccc(Nc2nccc(-c3ccc4[nH]cnc4c3)n2)c1` [Compound 63, 1-(3-((4-(1H-benzo[d]imidazol-5-yl)pyrimidin-2-yl)amino)phenyl)piperazin-2-one], the half-maximal inhibitory concentration (IC50) is 1000 to 10000 nM under setting [1] and 1000 to 10000 nM under setting [2].

`FC(F)(F)c1cccc(Nc2nccc(-c3cn4ccnc4cn3)n2)c1` [Compound 107, 4-(Imidazo[1,2-a]pyrazin-6-yl)-N-(3-(trifluoromethyl)phenyl)pyrimidin-2-amine]: the IC50 runs as follows: under setting [1], 1000 to 10000 nM; under setting [2], 1000 to 10000 nM.

As to `COc1cccc(Nc2nccc(-c3cccc(OC)c3)n2)c1` [Compound 250, N,4-bis(3-methoxyphenyl)pyrimidin-2-amine], the IC50 by setting is: under setting [1], 1000 to 10000 nM; under setting [2], 1000 to 10000 nM.

For `FC(F)(F)c1cc(Nc2nccc(-c3ccc4[nH]cnc4c3)n2)ccc1Cl` [Compound 89, 4-(1H-benzo[d]imidazol-5-yl)-N-(4-chloro-3-(trifluoromethyl)phenyl)pyrimidin-2-amine], the half-inhibitory concentration (IC50) runs as follows: under setting [1], 1000 to 10000 nM; under setting [2], 1000 to 10000 nM.

Regarding `Brc1cccc(Nc2nccc(-c3ccc4[nH]cnc4c3)n2)c1` [Compound 31, 4-(1H-benzo[d]imidazol-5-yl)-N-(3-bromophenyl)pyrimidin-2-amine], the half-inhibitory concentration (IC50) is less than 200 nM under setting [1] and less than 200 nM under setting [2].

On to `Oc1cc(-c2ccnc(Nc3ncccn3)n2)ccn1` [Compound 184, 4-(2-(pyrimidin-2-ylamino)pyrimidin-4-yl)pyridin-2-ol], for which the half-maximal inhibitory concentration (IC50) lay in the range of 10000 to 100000 nM under setting [1] and 10000 to 100000 nM under setting [2].

For the compound `Oc1cc(-c2ccnc(Oc3ccccc3)n2)ccn1` [Compound 232, 4-(2-phenoxypyrimidin-4-yl)pyridin-2-ol], the IC50 by setting is: under setting [1], 10000 to 100000 nM; under setting [2], 10000 to 100000 nM.

Turning to `C#Cc1cccc(Nc2nccc(-c3ccc4[nH]cnc4c3)n2)c1` [Compound 93, 4-(1H-benzo[d]imidazol-5-yl)-N-(3-ethynylphenyl)pyrimidin-2-amine], the half-inhibitory concentration (IC50) is 200 to 1000 nM under setting [1] and 200 to 1000 nM under setting [2].

In the case of `c1ccc(-c2cccc(Nc3nccc(-c4ccc5[nH]cnc5c4)n3)c2)cc1` [Compound 70, N-([1,1′-biphenyl]-3-yl)-4-(1H-benzo[d]imidazol-5-yl)pyrimidin-2-amine], the IC50 by setting is: under setting [1], less than 200 nM; under setting [2], less than 200 nM.

With `COc1ccc(-c2ccnc(N(C)c3ccccc3)n2)cn1` [Compound 223, 4-(6-methoxypyridin-3-yl)-N-methyl-N-phenylpyrimidin-2-amine], the half-inhibitory concentration (IC50) by setting is: under setting [1], 10000 to 100000 nM; under setting [2], 10000 to 100000 nM.

For the compound `CS(=O)(=O)c1cccc(Nc2nccc(-c3ccc4[nH]cnc4c3)n2)c1` [Compound 27, 4-(1H-benzo[d]imidazol-5-yl)-N-(3-(methylsulfonyl)phenyl)pyrimidin-2-amine], the IC50 under setting [1] is less than 200 nM and the 50% inhibitory concentration (IC50) under setting [2] was less than 200 nM.

On to `CN(C)S(=O)(=O)c1cccc(Nc2nccc(-c3ccc4[nH]cnc4c3)n2)c1` [Compound 7, 3-((4-(1H-benzo[d]imidazol-5-yl)pyrimidin-2-yl)amino)-N,N-dimethylbenzenesulfonamide], for which the IC50 under setting [1] is less than 200 nM and the concentration for half-maximal inhibition (IC50) under setting [2] was less than 200 nM.

In the case of `c1cc(-c2ccc3[nH]cnc3c2)nc(NC2CCOCC2)n1` [Compound 101, 4-(1H-benzo[d]imidazol-5-yl)-N-(tetrahydro-2H-pyran-4-yl)pyrimidin-2-amine], the IC50 lay within 1000 to 10000 nM under setting [1] and 1000 to 10000 nM under setting [2].

For `FC(F)(F)c1ccc(Nc2nccc(-c3ccc4[nH]cnc4c3)n2)cc1` [Compound 266, 4-(1H-benzo[d]imidazol-5-yl)-N-(4-(trifluoromethyl)phenyl)pyrimidin-2-amine], the IC50 under setting [1] fell in the range of 1000 to 10000 nM and the IC50 under setting [2] lay in the range of 1000 to 10000 nM.

Take `FC(F)(F)c1cccc(Nc2nccc(-c3c[nH]c4cnccc34)n2)c1` [Compound 30, 4-(1H-pyrrolo[2,3-c]pyridin-3-yl)-N-(3-(trifluoromethyl)phenyl)pyrimidin-2-amine]: the IC50 was 1000 to 10000 nM under setting [1] and 1000 to 10000 nM under setting [2].

In the case of `O=C(c1cccc(Nc2nccc(-c3ccc4[nH]cnc4c3)n2)c1)N1CCCC1` [Compound 17, (3-((4-(1H-benzo[d]imidazol-5-yl)pyrimidin-2-yl)amino)phenyl)(pyrrolidin-1-yl)methanone], the IC50 runs as follows: under setting [1], 10000 to 100000 nM; under setting [2], 10000 to 100000 nM.

On to `Fc1ccccc1Nc1nccc(-c2ccc3[nH]cnc3c2)n1` [Compound 66, 4-(1H-benzo[d]imidazol-5-yl)-N-(2-fluorophenyl)pyrimidin-2-amine], for which the half-maximal inhibitory concentration (IC50) is 1000 to 10000 nM under setting [1] and 1000 to 10000 nM under setting [2].

Take `Oc1cccc(Nc2nccc(-c3ccc4[nH]cnc4c3)n2)n1` [Compound 22, 6-((4-(1H-benzo[d]imidazol-5-yl)pyrimidin-2-yl)amino)pyridin-2-ol]: the IC50 reads like this: under setting [1], 10000 to 100000 nM; under setting [2], 10000 to 100000 nM.

Regarding `COc1cncc(-c2ccnc(Nc3ccccc3)n2)c1` [Compound 228, 4-(5-methoxypyridin-3-yl)-N-phenylpyrimidin-2-amine], the IC50 is, setting by setting: under setting [1], 1000 to 10000 nM; under setting [2], 1000 to 10000 nM.

Take `Oc1cncc(-c2ccnc(Nc3ccccc3)n2)c1` [Compound 219, 5-(2-(phenylamino)pyrimidin-4-yl)pyridin-3-ol]: the 50% inhibitory concentration (IC50) fell in the range of 1000 to 10000 nM under setting [1] and 1000 to 10000 nM under setting [2].

In the case of `COc1cc(-c2ccnc(Nc3ccc(F)c(F)c3)n2)ccn1` [Compound 210, N-(3,4-difluorophenyl)-4-(2-methoxypyridin-4-yl)pyrimidin-2-amine], the half-maximal inhibitory concentration (IC50) by setting is: under setting [1], 1000 to 10000 nM; under setting [2], 1000 to 10000 nM.

For `COc1cccc(-c2ccnc(N(C)c3ccccc3)n2)c1` [Compound 247, 4-(3-methoxyphenyl)-N-methyl-N-phenylpyrimidin-2-amine], the IC50 under setting [1] was 1000 to 10000 nM and the IC50 under setting [2] lay within 1000 to 10000 nM.

For the compound `c1ccc(Cn2cc(Nc3nccc(-c4ccc5[nH]cnc5c4)n3)cn2)cc1` [Compound 37, 4-(1H-benzo[d]imidazol-5-yl)-N-(1-benzyl-1H-pyrazol-4-yl)pyrimidin-2-amine], the IC50 was 200 to 1000 nM under setting [1] and 200 to 1000 nM under setting [2].

Regarding `COc1cncc(-c2ccnc(Nc3cccc(C(F)(F)F)c3)n2)c1` [Compound 204, 4-(5-methoxypyridin-3-yl)-N-(3-(trifluoromethyl)phenyl)pyrimidin-2-amine], the IC50 lay within 200 to 1000 nM under setting [1] and 200 to 1000 nM under setting [2].

Consider `COc1cc(-c2ccnc(Nc3cc(C(F)(F)F)ccn3)n2)ccn1` [Compound 166, 4-(2-methoxypyridin-4-yl)-N-(4-(trifluoromethyl)pyridin-2-yl)pyrimidin-2-amine], for which the concentration for half-maximal inhibition (IC50) is 10000 to 100000 nM under setting [1] and 10000 to 100000 nM under setting [2].
